Test results taken from PMC5222342, “Leukotriene B₄ Metabolism and p70S6 Kinase 1 Inhibitors: PF-4708671 but Not LY2584702 Inhibits CYP4F3A and the ω-Oxidation of Leukotriene B₄ In Vitro and In Cellulo” (PLoS ONE, 2017).

How the values were obtained:
CYP4F3A [1] = molecular target: T1, CYP4F3A (Homo sapiens, UniProt Q08477); set-up: gene CYP4F3
T1 sequence (Q08477 1-520): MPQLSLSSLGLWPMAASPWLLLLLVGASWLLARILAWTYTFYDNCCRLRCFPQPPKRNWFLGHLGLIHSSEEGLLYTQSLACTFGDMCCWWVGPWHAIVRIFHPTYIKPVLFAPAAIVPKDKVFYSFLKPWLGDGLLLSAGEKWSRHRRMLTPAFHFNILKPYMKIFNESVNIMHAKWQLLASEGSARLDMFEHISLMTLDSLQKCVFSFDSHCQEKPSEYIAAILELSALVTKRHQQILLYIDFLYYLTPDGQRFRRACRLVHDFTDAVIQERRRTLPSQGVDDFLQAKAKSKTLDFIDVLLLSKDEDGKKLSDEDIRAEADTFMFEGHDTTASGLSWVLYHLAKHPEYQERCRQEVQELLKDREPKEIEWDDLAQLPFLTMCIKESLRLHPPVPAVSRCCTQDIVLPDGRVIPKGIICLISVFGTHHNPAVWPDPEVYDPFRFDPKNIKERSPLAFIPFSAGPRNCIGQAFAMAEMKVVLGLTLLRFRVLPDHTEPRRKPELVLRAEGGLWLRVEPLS

CYP4F3A [2] = molecular target: T1, CYP4F3A; experiment: recombinant CYP4F3A LTB4 omega-oxidation assay, HPLC; Michaelis-Menten and Lineweaver-Burk kinetics; format: biochemical; set-up: gene CYP4F3; human recombinant CYP4F3A

Structure (SMILES)	omega-oxidation of LTB4 (1-20 uM) by recombinant CYP4F3A, HPLC, Michaelis-Menten (CYP4F3A [1])	IC50 (CYP4F3A [2])
CCCCC/C=C\C[C@@H](O)/C=C/C=C/C=C\[C@@H](O)CCCC(=O)O [LTB4]	Human recombinant CYP4F3A was incubated with increasing concentrations of PF-4708671 before the addition of LTB4 at different concentrations	–
CCc1cncnc1N1CCN(Cc2nc3cc(C(F)(F)F)ccc3[nH]2)CC1 [PF-4708671]	–	~750 nM
